System: ALOMY (blackgrass)
Test: Post-Emergent Test III (Wheat and Barley)
Assay type: in vivo, Alopecurus myosuroides
Details: Alopecurus myosuroides, post-emergence, 504 h; 35 g ai/ha, postemergence; read-out: Visual Growth Reduction (%) 21 Days After Application, ALOMY
Protocol: (§1) Seeds of the desired test plant species were planted in Sun Gro MetroMix® 306 planting mixture, which typically has a pH of 6.0 to 6.8 and an organic matter content of about 30 percent, in plastic pots with a surface area of 103.2 square centimeters (cm^2). When required to ensure good germination and healthy plants, a fungicide treatment and/or other chemical or physical treatment was applied. The plants were grown for 7-36 days in a greenhouse with an approximate 14 h photoperiod which was maintained at about 18° C. during the day and 17° C. during the night. Nutrients and water were added on a regular basis and supplemental lighting was provided with overhead metal halide 1000-Watt lamps as necessary. The plants were employed for testing when they reached the second or third true leaf stage.
(§2) A weighed amount, determined by the highest rate to be tested, of each test compound was placed in a 25 mL glass vial and was dissolved in 4 mL of a 97:3 v/v mixture of acetone and DMSO to obtain concentrated stock solutions. […] The concentrated stock solutions obtained were diluted with 20 mL of an aqueous mixture containing acetone, water, isopropyl alcohol, DMSO, Agri-Dex crop oil concentrate, and X-77 surfactant in a 48:39:10:1.5:1.5:0.02 v/v ratio to obtain spray solutions containing the highest application rates. Additional application rates were obtained by serial dilution of 12 mL of the high rate solution into a solution containing 2 mL of 97:3 v/v mixture of acetone and DMSO and 10 mL of an aqueous mixture containing acetone, water, isopropyl alcohol, DMSO, Agri-Dex crop oil concentrate, and X-77 surfactant in a 48:39:10:1.5:1.5:0.02 v/v ratio to obtain ½×, ¼×, ⅛× and 1/16× rates of the high rate. Compound requirements are based upon a 12 mL application volume at a rate of 187 liters per hectare (L/ha). Formulated compounds were applied to the plant material with an overhead Mandel track sprayer equipped with 8002E nozzles calibrated to deliver 187 L/ha over an application area of 0.503 square meters at a spray height of 18 inches (43 cm) above the average plant canopy height. Control plants were sprayed in the same manner with the solvent blank.
(§3) The treated plants and control plants were placed in a greenhouse as described above and watered by subirrigation to prevent wash-off of the test compounds. After 21 dAYS, the condition of the test plants as compared with that of the untreated plants was determined visually and scored on a scale of 0 to 100 percent where 0 corresponds to no injury and 100 corresponds to complete kill and presented as indicated in Table A.
(§4) By applying the well-accepted probit analysis as described by J. Berkson in Journal of the American Statistical Society, 48, 565 (1953) and by D. Finney in “Probit Analysis” Cambridge University Press (1952), herbicidal injury of a specific compound at various rates can be used to calculate GR10, GR20, GR50, GR80 and GR90 values, which are defined as growth reduction factors that correspond to the effective dose of herbicide required to provide plant growth reduction (GR) of 10 percent, 20 percent, 50 percent, 80 percent and 90 percent, respectively. Probit analysis was applied to data collected from multiple dose rates of individual compounds utilizing the procedures explained in the following examples. The analysis of those dose rates is captured in the following tables.

Structure (SMILES)	pest or weed control at 35 g/ha [%]
Cc1c(-c2ccc(C(F)(F)F)nc2)nc(C(=O)O)c(Cl)c1N [Compound 51, 4-amino-5-chloro-3-methyl-6′-(trifluoromethyl)-[2,3′-bipyridine]-6-carboxylic acid]	0 to 29

Same assay, conditions: Alopecurus myosuroides, post-emergence, 504 h; 70 g ai/ha, postemergence; read-out: Visual Growth Reduction (%) 21 Days After Application, ALOMY

Structure (SMILES)	pest or weed control at 70 g/ha [%]
Cc1c(-c2ccc(C(F)(F)F)nc2)nc(C(=O)O)c(Cl)c1N [Compound 51, 4-amino-5-chloro-3-methyl-6′-(trifluoromethyl)-[2,3′-bipyridine]-6-carboxylic acid]	0 to 29

Same assay, conditions: effective dose for growth reduction of 50 percent, probit analysis

Structure (SMILES)	GR50, ALOMY [g ai/ha]
Cc1c(-c2ccc(C(F)(F)F)nc2)nc(C(=O)O)c(Cl)c1N [Compound 51, 4-amino-5-chloro-3-methyl-6′-(trifluoromethyl)-[2,3′-bipyridine]-6-carboxylic acid]	>140

Same assay, conditions: effective dose for growth reduction of 80 percent, probit analysis

Structure (SMILES)	GR80, ALOMY [g ai/ha]
Cc1c(-c2ccc(C(F)(F)F)nc2)nc(C(=O)O)c(Cl)c1N [Compound 51, 4-amino-5-chloro-3-methyl-6′-(trifluoromethyl)-[2,3′-bipyridine]-6-carboxylic acid]	>140

System: APESV (windgrass)
Test: Post-Emergent Test III (Wheat and Barley)
Assay type: in vivo, Apera spica-venti
Details: Apera spica-venti, post-emergence, 504 h; 35 g ai/ha, postemergence; read-out: Visual Growth Reduction (%) 21 Days After Application, APESV
Protocol: as §1, §2, §3, §4

Structure (SMILES)	pest or weed control at 35 g/ha [%]
Cc1c(-c2ccc(C(F)(F)F)nc2)nc(C(=O)O)c(Cl)c1N [Compound 51, 4-amino-5-chloro-3-methyl-6′-(trifluoromethyl)-[2,3′-bipyridine]-6-carboxylic acid]	0 to 29

Same assay, conditions: Apera spica-venti, post-emergence, 504 h; 70 g ai/ha, postemergence; read-out: Visual Growth Reduction (%) 21 Days After Application, APESV

Structure (SMILES)	pest or weed control at 70 g/ha [%]
Cc1c(-c2ccc(C(F)(F)F)nc2)nc(C(=O)O)c(Cl)c1N [Compound 51, 4-amino-5-chloro-3-methyl-6′-(trifluoromethyl)-[2,3′-bipyridine]-6-carboxylic acid]	60 to 74

Same assay, conditions: effective dose for growth reduction of 50 percent, probit analysis

Structure (SMILES)	GR50, APESV [g ai/ha]
Cc1c(-c2ccc(C(F)(F)F)nc2)nc(C(=O)O)c(Cl)c1N [Compound 51, 4-amino-5-chloro-3-methyl-6′-(trifluoromethyl)-[2,3′-bipyridine]-6-carboxylic acid]	63

Same assay, conditions: effective dose for growth reduction of 80 percent, probit analysis

Structure (SMILES)	GR80, APESV [g ai/ha]
Cc1c(-c2ccc(C(F)(F)F)nc2)nc(C(=O)O)c(Cl)c1N [Compound 51, 4-amino-5-chloro-3-methyl-6′-(trifluoromethyl)-[2,3′-bipyridine]-6-carboxylic acid]	139

System: TRZSS
Test: Post-Emergent Test III (Wheat and Barley)
Assay type: in vivo
Details: Triticum aestivum, post-emergence, 504 h; 35 g ai/ha, postemergence; read-out: Visual Growth Reduction (%) 21 Days After Application, TRZSS
Protocol: as §1, §2, §3, §4

Structure (SMILES)	pest or weed control at 35 g/ha [%]
Cc1c(-c2ccc(C(F)(F)F)nc2)nc(C(=O)O)c(Cl)c1N [Compound 51, 4-amino-5-chloro-3-methyl-6′-(trifluoromethyl)-[2,3′-bipyridine]-6-carboxylic acid]	60 to 74

Same assay, conditions: Triticum aestivum, post-emergence, 504 h; 70 g ai/ha, postemergence; read-out: Visual Growth Reduction (%) 21 Days After Application, TRZSS

Structure (SMILES)	pest or weed control at 70 g/ha [%]
Cc1c(-c2ccc(C(F)(F)F)nc2)nc(C(=O)O)c(Cl)c1N [Compound 51, 4-amino-5-chloro-3-methyl-6′-(trifluoromethyl)-[2,3′-bipyridine]-6-carboxylic acid]	75 to 84

Same assay, conditions: effective dose for growth reduction of 20 percent, probit analysis

Structure (SMILES)	GR20, TRZSS [g ai/ha]
Cc1c(-c2ccc(C(F)(F)F)nc2)nc(C(=O)O)c(Cl)c1N [Compound 51, 4-amino-5-chloro-3-methyl-6′-(trifluoromethyl)-[2,3′-bipyridine]-6-carboxylic acid]	1

System: LOLSS
Test: Post-Emergent Test III (Wheat and Barley)
Assay type: in vivo
Details: post-emergence, 504 h; 35 g ai/ha, postemergence; read-out: Visual Growth Reduction (%) 21 Days After Application, LOLSS
Protocol: as §1, §2, §3, §4

Structure (SMILES)	pest or weed control at 35 g/ha [%]
Cc1c(-c2ccc(C(F)(F)F)nc2)nc(C(=O)O)c(Cl)c1N [Compound 51, 4-amino-5-chloro-3-methyl-6′-(trifluoromethyl)-[2,3′-bipyridine]-6-carboxylic acid]	0 to 29

Same assay, conditions: post-emergence, 504 h; 70 g ai/ha, postemergence; read-out: Visual Growth Reduction (%) 21 Days After Application, LOLSS

Structure (SMILES)	pest or weed control at 70 g/ha [%]
Cc1c(-c2ccc(C(F)(F)F)nc2)nc(C(=O)O)c(Cl)c1N [Compound 51, 4-amino-5-chloro-3-methyl-6′-(trifluoromethyl)-[2,3′-bipyridine]-6-carboxylic acid]	0 to 29

System: HORSS
Test: Post-Emergent Test III (Wheat and Barley)
Assay type: in vivo
Details: Hordeum vulgare, post-emergence, 504 h; 35 g ai/ha, postemergence; read-out: Visual Growth Reduction (%) 21 Days After Application, HORSS
Protocol: as §1, §2, §3, §4

Structure (SMILES)	pest or weed control at 35 g/ha [%]
Cc1c(-c2ccc(C(F)(F)F)nc2)nc(C(=O)O)c(Cl)c1N [Compound 51, 4-amino-5-chloro-3-methyl-6′-(trifluoromethyl)-[2,3′-bipyridine]-6-carboxylic acid]	60 to 74

Same assay, conditions: Hordeum vulgare, post-emergence, 504 h; 70 g ai/ha, postemergence; read-out: Visual Growth Reduction (%) 21 Days After Application, HORSS

Structure (SMILES)	pest or weed control at 70 g/ha [%]
Cc1c(-c2ccc(C(F)(F)F)nc2)nc(C(=O)O)c(Cl)c1N [Compound 51, 4-amino-5-chloro-3-methyl-6′-(trifluoromethyl)-[2,3′-bipyridine]-6-carboxylic acid]	75 to 84

Same assay, conditions: effective dose for growth reduction of 20 percent, probit analysis

Structure (SMILES)	GR20, HORSS [g ai/ha]
Cc1c(-c2ccc(C(F)(F)F)nc2)nc(C(=O)O)c(Cl)c1N [Compound 51, 4-amino-5-chloro-3-methyl-6′-(trifluoromethyl)-[2,3′-bipyridine]-6-carboxylic acid]	1

System: KCHSC (kochia)
Test: Post-Emergent Test III (Wheat and Barley)
Assay type: in vivo, Kochia scoparia
Details: Bassia scoparia, post-emergence, 504 h; 35 g ai/ha, postemergence; read-out: Visual Growth Reduction (%) 21 Days After Application, KCHSC
Protocol: as §1, §2, §3, §4

Structure (SMILES)	pest or weed control at 35 g/ha [%]
Cc1c(-c2ccc(C(F)(F)F)nc2)nc(C(=O)O)c(Cl)c1N [Compound 51, 4-amino-5-chloro-3-methyl-6′-(trifluoromethyl)-[2,3′-bipyridine]-6-carboxylic acid]	0 to 29

Same assay, conditions: Bassia scoparia, post-emergence, 504 h; 70 g ai/ha, postemergence; read-out: Visual Growth Reduction (%) 21 Days After Application, KCHSC

Structure (SMILES)	pest or weed control at 70 g/ha [%]
Cc1c(-c2ccc(C(F)(F)F)nc2)nc(C(=O)O)c(Cl)c1N [Compound 51, 4-amino-5-chloro-3-methyl-6′-(trifluoromethyl)-[2,3′-bipyridine]-6-carboxylic acid]	0 to 29

Source: US10765114B2, “4-amino-6-(pyridyl and 2-substitutedphenyl)-picolinates and 6-amino-2-(pyridyl and 2-substitutedphenyl)-pyrimidine-4-carboxylates and their use as herbicides” (Dow AgroSciences LLC, priority 2013, dated 2020)
